Test results as given in US20150342921A1, “METFORMIN-ORLISTAT COMPOSITIONS” (LANDSTEINER SCIENTIFIC S.A. DE C.V., priority 2012, published 2015).

Experiments:
[1] = cited from earlier work
clinical = conditions: both, human, in vivo
Source text: All subjects agreed to participate in the study and were considered as healthy, all as determined through detection tests including medical history, physical examination, electrocardiogram, hematic biometry, blood chemistry with 24 elements, detection of drug abuse, general urine exam as well as hepatitis B and HIV tests. Vital signs were considered normal with blood pressure of 50-90/84-120 mmHg, heart rate of 50-100 pulses/min, breathing rate was 14-25 breaths/min, and tympanic temperature of 36-37.8° C. […] Smokers, pregnant women and subjects with a clinical history of hypersensitivity to drugs, foods or environmental substances were not included.
The prospective and longitudinal study was performed in a crossed and balanced, randomized design with two sequences, two periods, a single dose, single blind with a wash out period of 1 week between treatments. […] After dosing, serial blood samples were collected and vital signs monitored during a period of 24 hours. Blood samples of 10 mL each were extracted at 0, 0.25, 0.5, 0.75, 1, 1.25, 1.5, 1.75, 2, 3, 4, 6, 8, 12 and 24 hours after administration. Vital signs were measured at 0, 1, 2, 3, 4, 6, 8, 12 and 24 hours after dosing. Subjects were held for 36 hours and monitored for safety and adverse effects throughout the study. Volunteers received a diet calculated at 3000 cal/day in each period. […]

[2] = after two treatment periods, 26 volunteers, single dose; 7 in total, all light
Source text: All subjects agreed to participate in the study and were considered as healthy, all as determined through detection tests including medical history, physical examination, electrocardiogram, hematic biometry, blood chemistry with 24 elements, detection of drug abuse, general urine exam as well as hepatitis B and HIV tests. […] Smokers, pregnant women and subjects with a clinical history of hypersensitivity to drugs, foods or environmental substances were not included.
The prospective and longitudinal study was performed in a crossed and balanced, randomized design with two sequences, two periods, a single dose, single blind with a wash out period of 1 week between treatments. […] After dosing, serial blood samples were collected and vital signs monitored during a period of 24 hours. […] Vital signs were measured at 0, 1, 2, 3, 4, 6, 8, 12 and 24 hours after dosing. Subjects were held for 36 hours and monitored for safety and adverse effects throughout the study. Volunteers received a diet calculated at 3000 cal/day in each period.

**Q.** What does the source list for `CN(C)C(=N)N=C(N)N` [Metformin]?
**A.** Excreted with no changes in the urine ([1]; in vivo): ~90%; Cmax (clinical; 500 mg): 1390 ± 440 ng/mL; Tmax (clinical; po): 2.41 h; Number of adverse effects [2]: 3

**Q.** With `CCCCCCCCCCC[C@@H](C[C@@H]1OC(=O)[C@H]1CCCCCC)OC(=O)[C@H](CC(C)C)NC=O` [Orlistat] as the compound, how does the “Dietetic fat excreted in feces” value ([1]; in vivo) read?
**A.** up to 30%

**Q.** And the Excreted in feces ([1]; in vivo)?
**A.** ~97%

**Q.** And the Oral bioavailability ([1]; metformin when fasting, orlistat administered orally)?
**A.** below 5%
